According to patent US8632788B2, “Parenteral formulation for epothilone analogs” (Bristol-Myers Squibb Company, priority 2001, dated 2014):

Key:
[1] = Degradation of the drug during dissolution in tertiary butanol/water, lyophilization and secondary drying; format: physicochemical; settings: dissolution at 5° C. in tertiary butanol/water, lyophilization at −16° C. 48 hours, drying at 15° C. under high vacuum 48 hours, light protected
Procedure: [1S-[1R*,3R*(E),7R*,10S*,11R*,12R*,16S*]]-[…]-8,8,10,12,16-pentamethyl-3-[1-methyl-2-(2-methyl-4-thiazolyl)ethenyl]-4-aza-17-oxabicyclo[14.1.0]heptadecane-5,9-dione, 9.86 g, was wetted/partially dissolved with 600 mL of a 9:1 mixture of tertiary butanol and Water for Injection USP which had been pre-cooled to 5° C. Once the drug powder had become completely wetted, dissolution was completed by the addition of 600 mL of a 1:9 mixture of tertiary butanol and Water for Injection and 766 mL of a 1:1 mixture of tertiary butanol and Water for Injection which likewise had been pre-cooled to 5° C. thereby making the final solution a 1:1 mixture. The dissolution was carried out under protection from light.
The solution formed above was promptly lyophilized in a Virtis INOTOP lyophilizer at −16° C. under light protectant conditions over a period of 48 hours. The resultant lyophilized product (lyophile) was then further dried at 15° C. under high vacuum for 48 hours. […] The lyophile was packaged under sterile conditions into 30 mL vials, each containing 10 mg of drug and standard excess to allow for vial/needle/syringe loss.

[2] = Physicochemical properties of the epothilone analogs relevant to compounding (solubility, stability in aqueous media, pH, light, wetting)
Description: Any one or two of these characteristics might be compensated for in compounding a pharmaceutical formulation for intravenous administration, but the combination of all of them presents a formidable challenge to the pharmaceutical compounding chemist.

[3] = Cytotoxic classification of the epothilone analogs

C/C(=C\c1csc(C)n1)C1C[C@@H]2O[C@]2(C)CCC[C@H](C)[C@H](O)[C@@H](C)C(=O)C(C)(C)[C@@H](O)CC(=O)N1 (relative stereo) [formula II, [1S-[1R*,3R*(E),7R*,10S*,11R*,12R*,16S*]]-7,11-Dihydroxy-8,8,10,12,16-pentamethyl-3-[1-methyl-2-(2-methyl-4-thiazolyl)ethenyl]-4-aza-7-oxabicyclo[14.1.0]heptadecane-5,9-dione]
degradation of the drug [1]: No detectable degradation | light sensitivity [2]: light sensitive | wetting characteristics [2]: exceptionally poor | solubility in aqueous media ([2]; aqueous media): very low solubility | degradation in contact with aqueous media ([2]; in contact with aqueous media): rapidly degrade | sensitivity to low pH ([2]; in solution): sensitive to low pH | cytotoxic class [3]: Class D
